Results on 22 compounds are retold here after US20250332173A1, “COMPOUNDS AND METHODS FOR MODULATING NUCLEIC ACID SPLICING” (REMIX THERAPEUTICS INC., priority 2021, published 2025).

The structures appear in SMILES notation. A value given as a limit tells only on which side of the number the result lay.

The subject of one assay is SMN2 mRNA. Put plainly: RT-qPCR splicing assay, SMN2 canonical junction (CJ) mRNA. In kind it is cell-based, human. The following applies: Homo sapiens; Table 5 panel; canonical junction qPCR; compound concentration having 50% response in CJ decrease; read-out: SMN2 IC50 (decrease in CJ mRNA levels). In short, it runs like this: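 A673 or K562 cells were treated for 24 h at 37 °C with compound in 11-point 3-fold dilution (top 10 uM final, DMSO ≤0.25%). Lysates then went to one-step RT-qPCR measuring canonical-junction mRNA, normalized to GAPDH, GUSB or PPIA.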

The next assay deals with HTT. Put plainly: HiBiT protein abundance assay, HTT HiBiT K562 cell line. The conditions noted are these: HiBiT K562 cell line, 24 hours, top dose 10 μM; read-out: Effect on protein abundance, HTT (IC50 category). Format: cell-based, human. In short, it runs like this: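 K562 knock-in lines with endogenous HiBiT-tagged target, 10,000 cells/well in IMDM + FBS, treated 24 h at 37° C with 10-point 3-fold dilutions (top 10 μM final; DMSO ≤0.25%). Lytic Nano-Glo HiBiT luminescence normalized to untagged K562 baseline and DMSO controls; IC50 = concentration giving 50% abundance via four-parameter fit.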
For orientation: The HiBiT peptide binds its large partner to form an active luciferase.

Assay [1] relates to K562 (human chronic myelogenous leukemia) cells. Kind of assay: Cell Titer Glo 2.0 cell viability assay. Format: cell-based. The following applies: Homo sapiens, K562, 72 h, K562 cells, 72 hours, Cell Titer Glo 2.0; read-out: K562 GI50. Background: Cellular ATP, detected with luciferase, serves as a proxy for viable cell number.

As for `Cc1nc2c(F)cc(-c3cc(F)c4c(=O)n(C5CCNC6(CC6)C5)ccc4c3)cc2n1C` (stereo not drawn) [Compound 430, 8-fluoro-6-(4-fluoro-1,2-dimethyl-1H-benzo[d]imidazol-6-yl)-2-(4-azaspiro[2.5]octan-7-yl)isoquinolin-1(2H)-one], the IC50 (in general, the concentration needed to halve the response being measured) was 100 to 1000 nM in the assay on SMN2 mRNA and greater than 10000 nM in the assay with HTT. Besides, the GI50 (in general, the concentration giving 50% growth inhibition) in assay [1] lay within 1000 to 10000 nM.
For `Cc1cc(-c2cc(F)c3c(=O)n(C4CCNC5(CC5)C4)ccc3c2)nc2cn(C)nc12` (stereo not drawn) [Compound 431], in that order: less than 100 nM, less than 100 nM and 100 to 1000 nM.
As to `Cc1cn2nc(-c3cc(O)c4c(=O)n(C5CCNC5)ccc4c3)cc(C)c2n1` (stereo not drawn) [Compound 432, 6-{2,8-dimethylimidazo[1,2-b]pyridazin-6-yl}-8-hydroxy-2-(pyrrolidin-3-yl)isoquinolin-1-one], the IC50 in the assay with SMN2 mRNA was less than 100 nM; in the assay on HTT, 1000 to 10000 nM. Moreover, the GI50 in assay [1] is 1000 to 10000 nM.
For the compound `Cc1cn2cc(-c3cc(O)c4c(=O)n(C5CCNC5)ccc4c3)cc(C#N)c2n1` (stereo not drawn) [Compound 433, 6-(8-hydroxy-1-oxo-2-(pyrrolidin-3-yl)-1,2-dihydroisoquinolin-6-yl)-2-methylimidazo[1,2-a]pyridine-8-carbonitrile], the IC50 was less than 100 nM with SMN2 mRNA and greater than 10000 nM in the assay on HTT. The GI50 in assay [1] is 1000 to 10000 nM.
The matching figures for `Cc1cn2cc(-c3cc(F)c4c(=O)n(C5CCNC5)ccc4c3)cc(C#N)c2n1` (stereo not drawn) [Compound 434, 6-[8-fluoro-1-oxo-2-(pyrrolidin-3-yl)isoquinolin-6-yl]-2-methylimidazo[1,2-a]pyridine-8-carbonitrile]: less than 100 nM, greater than 10000 nM and 1000 to 10000 nM.
For `Cc1cn2cc(-c3ccc4c(=O)n(C5CCNCC5)cc(C)c4c3)cc(F)c2n1` [Compound 440, 6-{8-fluoro-2-methylimidazo[1,2-a]pyridin-6-yl}-4-methyl-2-(piperidin-4-yl)isoquinolin-1-one], in that order: less than 100 nM, 100 to 1000 nM and less than 100 nM.
The matching figures for `Cc1cn2cc(-c3ccc4c(=O)n(C5CCNC5)cc(C)c4c3)cc(F)c2n1` (stereo not drawn) [Compound 441, 6-{8-fluoro-2-methylimidazo[1,2-a]pyridin-6-yl}-4-methyl-2-(pyrrolidin-3-yl)isoquinolin-1-one]: 100 to 1000 nM, 1000 to 10000 nM and 1000 to 10000 nM.
As to `Cc1cn2cc(-c3ccc4c(=O)n(C5CCNC5)cc(C)c4c3)cc(C#N)c2n1` (stereo not drawn) [Compound 442, 2-methyl-6-[4-methyl-1-oxo-2-(pyrrolidin-3-yl)isoquinolin-6-yl]imidazo[1,2-a]pyridine-8-carbonitrile], the IC50 is 1000 to 10000 nM in the assay on SMN2 mRNA and greater than 10000 nM in the assay with HTT. In assay [1], the GI50 was greater than 10000 nM.
As to `Cc1cn2nc(-c3ccc4c(=O)n([C@H]5CCNC6(CC6)C5)ccc4c3)cc(C)c2n1` [Compound 445], the IC50 with SMN2 mRNA and in the assay on HTT was less than 100 nM throughout. For the same compound, the GI50 in assay [1] is less than 100 nM.
With `Cc1cn2nc(-c3cc(F)c4c(=O)n([C@@H]5CCNC6(CC6)C5)ncc4c3)cc(C)c2n1` [Compound 446], the IC50 with SMN2 mRNA and in the assay on HTT was less than 100 nM each time. Also, the GI50 in assay [1] was in the range of 100 to 1000 nM.
Consider `Cc1cn2nc(-c3cc(F)c4c(=O)n([C@H]5CCNC6(CC6)C5)ncc4c3)cc(C)c2n1` [Compound 447], for which the IC50 with SMN2 mRNA and in the assay with HTT was less than 100 nM throughout. In addition, the GI50 in assay [1] was in the range of 100 to 1000 nM.
On to `Cc1cn2nc(-c3cc4ccn(C5CCNCC5)c(=O)c4cc3O)cc(C)c2n1` [Compound 448, 6-{2,8-dimethylimidazo[1,2-b]pyridazin-6-yl}-7-hydroxy-2-(piperidin-4-yl)isoquinolin-1-one], for which the IC50 with SMN2 mRNA and in the assay on HTT was less than 100 nM throughout. Moreover, the concentration for 50% growth inhibition (GI50) in assay [1] is less than 100 nM.
`COc1cc2c(=O)n(C3CCNCC3)ccc2cc1-c1cc(C)c2nc(C)cn2n1` [Compound 449, 6-{2,8-dimethylimidazo[1,2-b]pyridazin-6-yl}-7-methoxy-2-(piperidin-4-yl)isoquinolin-1-one]: the concentration for half-maximal inhibition (IC50) in the assay with SMN2 mRNA and in the assay on HTT was greater than 10000 nM each time. The GI50 in assay [1] is greater than 10000 nM.
`Cc1cn2cc(-c3ccc4c(=O)n([C@@H]5CCNC5)cc(C)c4c3)cc(F)c2n1` [Compound 452, (R)-6-(8-fluoro-2-methylimidazo[1,2-a]pyridin-6-yl)-4-methyl-2-(pyrrolidin-3-yl)isoquinolin-1(2H)-one]: the IC50 in the assay on SMN2 mRNA was less than 100 nM; in the assay with HTT, greater than 10000 nM. Also, the GI50 in assay [1] is 1000 to 10000 nM.
For `Cc1cn2c(n1)CCC(c1ccc3c(=O)n(C4CCNCC4)ccc3c1)C2` (stereo not drawn) [Compound 453, 6-{2-methyl-5H,6H,7H,8H-imidazo[1,2-a]pyridin-6-yl}-2-(piperidin-4-yl)isoquinolin-1-one], in that order: greater than 10000 nM, greater than 10000 nM and greater than 10000 nM.
For `Cc1cn2cc(-n3ccc4cc(N5C[C@@H](C)N[C@@H](C)C5)ccc4c3=O)nc(C)c2n1` [Compound 454, 2-{2,8-dimethylimidazo[1,2-a]pyrazin-6-yl}-6-[(3R,5S)-3,5-dimethylpiperazin-1-yl]isoquinolin-1-one], the IC50 in the assay with SMN2 mRNA is 1000 to 10000 nM; in the assay with HTT, greater than 10000 nM. In assay [1], the GI50 was greater than 10000 nM.
With `Cc1cn2cc(-c3ccc4c(=O)n([C@H]5CCNC5)cc(C)c4c3)cc(C#N)c2n1` [Compound 456, (S)-2-methyl-6-(4-methyl-1-oxo-2-(pyrrolidin-3-yl)-1,2-dihydroisoquinolin-6-yl)imidazo[1,2-a]pyridine-8-carbonitrile], the values for the IC50 in the assay on SMN2 mRNA and in the assay with HTT were 1000 to 10000 nM and greater than 10000 nM, respectively. Besides, the GI50 in assay [1] is greater than 10000 nM.
Consider `Cc1cn2cc(-c3cc(F)c4c(=O)n(C5CCNCC5)cc(C)c4c3)cc(F)c2n1` [Compound 461, 8-fluoro-6-{8-fluoro-2-methylimidazo[1,2-a]pyridin-6-yl}-4-methyl-2-(piperidin-4-yl)isoquinolin-1-one], for which the IC50 with SMN2 mRNA and with HTT was less than 100 nM throughout. Further, in assay [1], the GI50 was less than 100 nM.
Take `Cc1cn2nc(-c3cc(O)c4c(=O)n(C5CCNC5)cc(C)c4c3)cc(C)c2n1` (stereo not drawn) [Compound 462]: the IC50 fell in the range of 100 to 1000 nM in the assay on SMN2 mRNA and 1000 to 10000 nM with HTT. The GI50 in assay [1] is 1000 to 10000 nM.
As to `Cn1cc2c(n1)CCN(c1ccc3c(=O)n(C4CCNCC4)ccc3c1)C2` [Compound 509, 6-{2-methyl-4H,6H,7H-pyrazolo[4,3-c]pyridin-5-yl}-2-(piperidin-4-yl)isoquinolin-1-one], the values for the IC50 with SMN2 mRNA and in the assay on HTT were 1000 to 10000 nM and greater than 10000 nM, respectively. For the same compound, the GI50 in assay [1] is greater than 10000 nM.
For `Cc1cn2cc(-c3ccc4c(=O)n(C5CCNC6(CC6)C5)ncc4c3)cc(Cl)c2n1` (stereo not drawn) [Compound 510], the values for the IC50 with SMN2 mRNA and with HTT were less than 100 nM and 100 to 1000 nM, respectively. In assay [1], the GI50 fell in the range of 1000 to 10000 nM.
For `Cn1cc2nc(-c3ccc4c(=O)n(C5CCNC6(CC6)C5)ncc4c3)ccc2n1` (stereo not drawn) [Compound 511], in that order: less than 100 nM, 100 to 1000 nM and 1000 to 10000 nM.
